In publication PMC9230201, “Sustained Consumption of a Decaffeinated Green Coffee Nutraceutical Has Limited Effects on Phenolic Metabolism and Bioavailability in Overweight/Obese Subjects” (Nutrients, 2022):
“And” between values parts separate entries of the source, which are not always exact repeats. Equal values may be shown once.

Columns and labels:
[1] = Urinary excretion of phenolic metabolites after intake of the GCPE nutraceutical; details: for Cumulative urinary excretion, Total 0–24 h / Urinary excretion: urine; for Cumulative urinary excretion, Total 0–24 h: mean ± SEM, n = 9
Protocol: (§1) Participants attended the Human Nutrition Unit (HNU) at the Institute of Food Science, Technology and Nutrition (ICTAN-CSIC) on two consecutive days at the beginning of the intervention (week 0) and also on two consecutive days at the end of the study, after consuming daily two doses of the GCPE nutraceutical, providing 600 mg/d phenols, during two months (week 8). […] A licensed health care professional placed an intravenous catheter in the subjects′ nondominant arm and collected a fasting blood sample (baseline, 0 h). Then, subjects drank the soluble GCPE nutraceutical dissolved in 200 mL of water. […] On the sampling days, volunteers remained at the HNU, where a (poly)phenol-free diet was provided. Half an hour after consuming the nutraceutical, volunteers ate a breakfast consisting of ham, cheese, white bread, and a yogurt. Lunch (paella, bread, and yogurt) and an afternoon snack (muffin and yogurt) were eaten 5 and 9 h, respectively, after consuming the nutraceutical. Water and isotonic beverages were freely available. […] The same protocol was followed during visits at the end of the 8-week intervention. On each occasion, two days before each visit to the HNU, subjects consumed a low (poly)phenol diet free of foods containing hydroxycinnamates such as coffee, herbal teas, red wine, artichokes, whole grain cereals, vegetables, fruits and fruit juices, and dried fruits. Only banana, watermelon, cantaloupes, and potatoes were allowed.
(§2) Blood samples were immediately centrifuged (10 min, 3000 rpm, 4 °C) to obtain plasma. […] All biological samples were stored at −80 °C until analysis.
(§3) To extract plasma metabolites, 10 µL of 50% (v/v) aqueous formic acid, and 900 µL cold acetonitrile containing 50 µL of 10% (w/v) ascorbic acid were added to 400 µL defrosted plasma. Samples were vortexed and centrifuged (14,000 rpm, 10 min, 4 °C), repeating the extraction and combining the two supernatants, which were reduced to dryness under nitrogen [13]. Dried samples were resuspended in 150 µL of 0.1% aqueous formic acid (containing 10% acetonitrile acidified with 0.1% formic acid), centrifuged (15 min, 14,000 rpm, 4 °C), and the supernatant collected. Urine samples were diluted 1:1 with Milli-Q water and centrifuged (14,000 rpm, 20 min, 4 °C) prior to analysis. Phosphate-buffered saline (3 mL) was added to a representative 300 mg sample of thawed feces, homogenized in an ultrasound bath during 10 min, centrifuged (14,000 rpm, 20 min, 4 °C), and the supernatants collected.
(§4) Mobile phase A was 0.1% formic acid in Milli-Q water, and mobile phase B was acetonitrile containing 0.1% formic acid at a 0.3 mL/min flow rate. […] Metabolites were identified based on their retention time using authentic standards when possible. […] Urine concentration of excreted metabolites was normalized to the total volume excreted in each studied interval.
(§5) Plasma (30 µL), urine (5 µL) and fecal extracts (5 µL) were filtered through 0.45 µm
(§6) cellulose-acetate membrane filters and injected into an Agilent 1200 series LC system
(§7) ESI-Jet Stream Technology (Agilent Technologies). A reverse-phase Ascentis Express
(§8) C18 (15 cm x 3 mm, 2.7 µm) column (Sigma-Aldrich Quimica, Madrid), preceded by a
(§9) phase A was 0.1% formic acid in Milli-Q water, and mobile phase B was acetonitrile
(§10) containing 0.1% formic acid at a 0.3 mL/min flow rate. The gradient started with 10% B
(§11) at 0 min, 30% B at 10 min, 40% B at 15 min, reaching 50% B at 20 min. The starting
(§12) gradient was then re-established in 2 min and maintained for 8 min to re-equilibrate the

[2] = Fecal excretion of phenolic metabolites after intake of the GCPE nutraceutical; details: feces
Protocol: as §1, §2, §3, §4, §5, §6, §7, §8, §9, §10, §11, §12

[3] = Plasma pharmacokinetics of phenolic metabolites after intake of the GCPE nutraceutical (LC-MS-QToF); details: human, oral; for AUC(0-t) / Tmax: 300 mg hydroxycinnamic acids; for AUC(0-t): AUC0–24h; for Tmax: Tmax (h) or Range; for Cmax: 300 mg, mean ± SEM, n = 9
Protocol: Participants attended the Human Nutrition Unit (HNU) at the Institute of Food Science, Technology and Nutrition (ICTAN-CSIC) on two consecutive days at the beginning of the intervention (week 0) and also on two consecutive days at the end of the study, after consuming daily two doses of the GCPE nutraceutical, providing 600 mg/d phenols, during two months (week 8). On each occasion, on the first visit day (Figure 1), subjects arrived at the HNU after an overnight (12 h) fast and provided a urine sample. A licensed health care professional placed an intravenous catheter in the subjects′ nondominant arm and collected a fasting blood sample (baseline, 0 h). Then, subjects drank the soluble GCPE nutraceutical dissolved in 200 mL of water. Subsequently, blood samples were collected in EDTA-coated tubes at 0.5, 1, 1.5, 2, 3, 4, 6, 8, 10, and 11 h. On the sampling days, volunteers remained at the HNU, where a (poly)phenol-free diet was provided. Half an hour after consuming the nutraceutical, volunteers ate a breakfast consisting of ham, cheese, white bread, and a yogurt. Lunch (paella, bread, and yogurt) and an afternoon snack (muffin and yogurt) were eaten 5 and 9 h, respectively, after consuming the nutraceutical. Water and isotonic beverages were freely available. Volunteers were instructed to eat a (poly)phenol-free dinner that night and to attend the HNU on the next day after a 12 h fast. Then, a final blood sample was obtained from the antecubital vein 24 h after consuming the nutraceutical. The same protocol was followed during visits at the end of the 8-week intervention. On each occasion, two days before each visit to the HNU, subjects consumed a low (poly)phenol diet free of foods containing hydroxycinnamates such as coffee, herbal teas, red wine, artichokes, whole grain cereals, vegetables, fruits and fruit juices, and dried fruits. Only banana, watermelon, cantaloupes, and potatoes were allowed.
as §2
To extract plasma metabolites, 10 µL of 50% (v/v) aqueous formic acid, and 900 µL cold acetonitrile containing 50 µL of 10% (w/v) ascorbic acid were added to 400 µL defrosted plasma. Samples were vortexed and centrifuged (14,000 rpm, 10 min, 4 °C), repeating the extraction and combining the two supernatants, which were reduced to dryness under nitrogen [13]. Dried samples were resuspended in 150 µL of 0.1% aqueous formic acid (containing 10% acetonitrile acidified with 0.1% formic acid), centrifuged (15 min, 14,000 rpm, 4 °C), and the supernatant collected.
A reverse-phase Ascentis Express C18 (15 cm × 3 mm, 2.7 µm) column (Sigma-Aldrich Quimica, Madrid, Spain), preceded by a Supelco 55215-U guard column (3 mm × 5 mm, 2.7 µm), was used for separation. Mobile phase A was 0.1% formic acid in Milli-Q water, and mobile phase B was acetonitrile containing 0.1% formic acid at a 0.3 mL/min flow rate. […] Metabolites were identified based on their retention time using authentic standards when possible.

[4] = week 0, first peak where biphasic
[5] = week 8, first peak where biphasic
[6] = week 0, GCPE nutraceutical with 300 mg hydroxycinnamic acids
[7] = week 8, GCPE nutraceutical with 300 mg hydroxycinnamic acids

Row | Compound | Cumulative urinary excretion, Total 0–24 h ([1]; week 0) [µmol] | Cumulative urinary excretion, Total 0–24 h ([1]; week 8) [µmol] | Amount excreted in urine, 0- 3 h ([1]; week 0, interval 0–3 h) [µmol] | Amount excreted in urine, 3-6 h ([1]; week 0, interval 3–6 h) [µmol] | Amount excreted in urine, 6-9 h ([1]; week 0, interval 6–9 h) [µmol] | Amount excreted in urine, 9-11 h ([1]; week 0, interval 9–11 h) [µmol] | Amount excreted in urine, 11-24 h ([1]; week 0, interval 11–24 h) [µmol] | Amount excreted in urine, 0- 3 h ([1]; week 8, interval 0–3 h) [µmol] | Amount excreted in urine, 3-6 h ([1]; week 8, interval 3–6 h) [µmol] | Amount excreted in urine, 6-9 h ([1]; week 8, interval 6–9 h) [µmol] | Amount excreted in urine, 9-11 h ([1]; week 8, interval 9–11 h) [µmol] | Amount excreted in urine, 11-24 h ([1]; week 8, interval 11–24 h) [µmol] | Amount of fecal metabolite excreted at 0 h ([2]; week 0, mean ± SEM, n = 9) | Amount of fecal metabolite excreted at 0 h ([2]; week 8) | Amount of fecal metabolite excreted at 24 h ([2]; week 0) [µmol/g] | Amount of fecal metabolite excreted at 24 h ([2]; week 8) [µmol/g] | also measured
1 | O=C(O)c1ccc(O)c(O)c1 [3,4-Dihydroxybenzoic acid] | 0.13 ± 0.02 | 0.18 ± 0.04 | 0.016 ± 0.005 | 0.007 ± 0.003 | 0.017 ± 0.005 | 0.018 ± 0.006 | 0.035 ± 0.009 | 0.03 ± 0.01 | 0.014 ± 0.003 | 0.027 ± 0.007 | 0.018 ± 0.007 | 0.03 ± 0.009 | 0.016 ± 0.006 µmol/g | 0.026 ± 0.008 µmol/g | 0.018 ± 0.005 | 0.04 ± 0.01 | Amount of fecal metabolite excreted at 0 h ([2]; week 0, mean ± SEM, n = 9, listed as 3,4-dihydroxybenzoic acid): 0.016 µmol/g; Amount of fecal metabolite excreted at 0 h ([2]; week 8, listed as 3,4-dihydroxybenzoic acid): 0.026 µmol/g
2 | COc1cc(/C=C/C(=O)O[C@@H]2C[C@@](O)(C(=O)O)C[C@@H](O)[C@@H]2O)ccc1O [3-Feruloylquinic acid] | 0.29 ± 0.07 | 0.34 ± 0.07 | 0.15 ± 0.04 | 0.1 ± 0.04 | 0.021 ± 0.006 | 0.007 ± 0.004 | 0.01 ± 0.005 | 0.19 ± 0.04 | 0.08 ± 0.02 | 0.05 ± 0.01 | 0.014 ± 0.008 | 0.015 ± 0.007 | 0.003 ± 0.003 µmol/g | 0.0010 ± 0.0007 µmol/g | 0.003 ± 0.003 | 0.003 ± 0.002 | 
3 | O=C(O)c1cccc(O)c1 [3-Hydroxybenzoic acid] | 0.91 ± 0.07 | 1.0 ± 0.1 | 0.09 ± 0.02 | 0.05 ± 0.01 | 0.08 ± 0.02 | 0.064 ± 0.009 | 0.26 ± 0.02 | 0.1 ± 0.01 | 0.06 ± 0.01 | 0.11 ± 0.02 | 0.07 ± 0.02 | 0.19 ± 0.04 | 0.03 ± 0.02 µmol/g | 0.020 ± 0.008 µmol/g | 0.03 ± 0.01 | 0.020 ± 0.007 | AUC(0-t) ([3]; week 0): 0.7 ± 0.3 µM·h; AUC(0-t) ([3]; week 8): 0.8 ± 0.3 µM·h; Tmax [3, 4]: 8 ± 1 h; Tmax [3, 5]: 4 ± 1 h; Cmax [3, 6]: 80 ± 20 nM; Cmax [3, 7]: 100 ± 30 nM
4 | O=C(O)Cc1ccc(O)c(O)c1 [3′,4′-Dihydroxyphenylacetic acid] | 1.2 ± 0.2 | 1.3 ± 0.2 | 0.12 ± 0.03 | 0.08 ± 0.03 | 0.11 ± 0.05 | 0.06 ± 0.02 | 0.38 ± 0.04 | 0.15 ± 0.03 | 0.05 ± 0.02 | 0.08 ± 0.02 | 0.09 ± 0.03 | 0.31 ± 0.03 |  |  |  | 0.010 ± 0.008 | 
5 | COc1cc(C(=O)O)ccc1O [4-Hydroxy-3-methoxybenzoic acid] |  |  |  |  |  |  |  |  |  |  |  |  | 0.06 ± 0.03 µmol/g | 0.006 ± 0.006 µmol/g |  |  | AUC(0-t) ([3]; week 0): 9 ± 2 µM·h; AUC(0-t) ([3]; week 8): 14 ± 4 µM·h; Tmax [3, 4]: 7 ± 3 h; Tmax [3, 5]: 7 ± 2 h; Cmax [3, 6]: 1100 ± 200 nM; Cmax [3, 7]: 1600 ± 400 nM
6 | O=C(CCc1ccc(O)c(O)c1)OC1CC(O)(C(=O)O)CC(O)C1O (stereo not shown) [5-Dihydrocaffeoylquinic acid] | 0.03 ± 0.02 | 0.03 ± 0.01 | 0.012 ± 0.006 | 0.005 ± 0.003 | 0.003 ± 0.002 | 0.003 ± 0.002 | 0.01 ± 0.004 | 0.004 ± 0.003 | 0.002 ± 0.001 | 0.002 ± 0.002 | 0.002 ± 0.002 | 0.015 ± 0.008 | 0.04 ± 0.01 µmol/g | 0.06 ± 0.02 µmol/g | 0.05 ± 0.01 | 0.08 ± 0.02 | 
7 | O=C(O)/C=C/c1ccc(O)c(O)c1 [CA, 3′,4′-Dihydroxycinnamic acid] | 0.42 ± 0.06 | 0.45 ± 0.09 | 0.13 ± 0.03 | 0.08 ± 0.02 | 0.08 ± 0.03 | 0.023 ± 0.008 | 0.12 ± 0.02 | 0.12 ± 0.03 | 0.06 ± 0.01 | 0.11 ± 0.02 | 0.06 ± 0.03 | 0.11 ± 0.03 |  | 0.003 ± 0.002 µmol/g | 0.0003 ± 0.0003 | 0.003 ± 0.003 | 
8 | O=C(O)/C=C/c1ccc(O)cc1 [CoA, 4′-Hydroxycinnamic acid] |  |  |  |  |  |  |  |  |  |  |  |  |  | 0.006 ± 0.004 µmol/g | 0.002 ± 0.002 | 0.003 ± 0.001 | 
9 | O=C(O)CCc1ccc(O)cc1 [DHCoA, 3-(4′-Hydroxyphenyl)propanoic acid] | 4 ± 1 | 6 ± 2 | 0.16 ± 0.04 | 0.09 ± 0.02 | 0.5 ± 0.2 | 0.6 ± 0.2 | 1.4 ± 0.4 | 0.4 ± 0.2 | 0.3 ± 0.1 | 0.9 ± 0.3 | 0.8 ± 0.3 | 1 ± 0.2 | 0.005 ± 0.003 µmol/g | 0.006 ± 0.006 µmol/g | 0.005 ± 0.005 | 0.014 ± 0.005 | Urinary excretion ([1]; week 0): 4 µmol/24 h; Urinary excretion ([1]; week 8): 6 µmol/24 h
10 | O=C(O)CCc1cccc(O)c1 [DHiCoA, 3-(3′-Hydroxyphenyl)propanoic acid] |  |  |  |  |  |  |  |  |  |  |  |  | 0.21 µmol/g and 0.21 ± 0.07 µmol/g | 0.4 µmol/g and 0.4 ± 0.1 µmol/g | 0.24 ± 0.07 | 0.25 ± 0.07 | 
